One data set deals with TGF-β. Briefly: UUO study: quantitative RT-PCR of kidney, TGF-β. Format: in vivo, C57BL/6 mice. The conditions noted are these: UUO mice kidney. How it is done:
Quantitative RT-PCR: Total ribonucleic acid (RNA) was extracted from kidney samples using RNAiso (Takara Bio, Japan) according to the manufacturer's instructions. One μg of RNA was reverse-transcribed using a reaction mixture containing […] (mM) of magnesium chloride (MgCl2) (F. Hoffmann-La Roche, Switzerland), 40 U RNase inhibitor (Toyobo, Japan), 0.5 mM dNTP (Promega, USA), 6.28 μM random hexamer (Promega), 5× first strand buffer (Promega), 10 mM dithiothreitol (Invitrogen, USA) and 200 U MMLV-RT (Invitrogen) in a final volume of 20 μL. The reaction was carried out for 1 hour at 37° C., followed by 5 minutes at 99° C. Real-time PCR was performed using real-time PCR DICE and TB Green™ Premix Ex Taq™ II (Takara Bio). To calculate the relative […] (mRNA) expression level, the expression of each gene (e.g., α-SMA, TIMP-1, TGF-β and Collagen Type 1) was normalized to that of reference gene 36B4 (gene symbol: Rplp0). Information regarding the PCR-primer sets and the plate layout are described in Tables 1 and 2.

The next data set concerns NAFLD patients. Briefly: Phase IIa NAFLD study: safety (adverse events). It is filed as in vivo, human. From the text:
The study was planned to include 96 evaluable patients with 32 patients randomized per treatment group.
The intensity of an AE is an estimate of the relative severity of the event made by the Investigator based on his or her clinical experience. The following definitions were used to rate the severity of an AE: • Mild: The adverse event was transient and easily tolerated. • Moderate: The adverse event caused the patient discomfort and interrupted the patient's usual activities. • Severe: The adverse event caused considerable interference with the patient's usual activities and may have been incapacitating or life-threatening.
Causality of the AE to experimental treatment was also established by taking into account the patient's history, most recent physical examination findings, and concomitant medications. The following definitions were used to determine causality of an AE: • Not related: temporal relationship of the onset of the AE, relative to the experimental treatment was not reasonable or another cause could explain the occurrence of the AE. • Related: temporal relationship of the onset of the AE, relative to the experimental treatment was reasonable, followed a known response pattern to the treatment, and an alternative cause was unlikely.

In another data set the test system is BDL-operated mice. Briefly: BDL study: serum biochemistry (ALT, total bilirubin). The conditions noted are these: for Serum ALT / Serum Total Bilirubin: BDL mice. Format: in vivo, C57BL/6J mice. How it is done:
BDL Surgery: On Day 0 of the study, BDL surgery was performed under pentobarbital (Kyoritsu Seiyaku, Japan) anesthesia. The mouse's hair was first shaved, the abdominal cavity cut open, and the common bile duct was ligated twice with 7-0 surgical silk. The mouse's peritoneum and the skin were closed with sutures, and the mice were transferred to a clean cage (e.g., resting cage) until recovered from anesthesia. Sham operated mice had their common bile duct exposed but not ligated.
Sample Collection: For serum samples, non-fasting blood was collected in serum separate tubes without anticoagulant through direct cardiac puncture and centrifuged at 3,500×g for 4 minutes at 4° C. The supernatant was collected and stored at −80° C. for biochemistry (30 μL) and shipping (all the remaining). For liver samples, left lateral lobe was collected and cut into 6 pieces. Two pieces of left lateral lobe were fixed in Bouin's solution and then embedded in paraffin. Samples were stored at room temperature for histological analysis. The other 2 pieces of left lateral lobe were embedded in O.C.T. compound and quick frozen in liquid nitrogen. Samples were stored at −80° C. The remaining pieces of left lateral lobe was snap frozen in liquid nitrogen and stored at −80° C. for gene expression analyses. Right medial lobe, left medial lobe, right lobe and caudate lobe were snap frozen in liquid nitrogen and stored at −80° C. for shipping.

The target of another data set is T1, type II TGF-β receptor (Homo sapiens, UniProt P37173).
T1 construct: endogenous in cells; host or cells: HepG2
T1 sequence (P37173 23-567): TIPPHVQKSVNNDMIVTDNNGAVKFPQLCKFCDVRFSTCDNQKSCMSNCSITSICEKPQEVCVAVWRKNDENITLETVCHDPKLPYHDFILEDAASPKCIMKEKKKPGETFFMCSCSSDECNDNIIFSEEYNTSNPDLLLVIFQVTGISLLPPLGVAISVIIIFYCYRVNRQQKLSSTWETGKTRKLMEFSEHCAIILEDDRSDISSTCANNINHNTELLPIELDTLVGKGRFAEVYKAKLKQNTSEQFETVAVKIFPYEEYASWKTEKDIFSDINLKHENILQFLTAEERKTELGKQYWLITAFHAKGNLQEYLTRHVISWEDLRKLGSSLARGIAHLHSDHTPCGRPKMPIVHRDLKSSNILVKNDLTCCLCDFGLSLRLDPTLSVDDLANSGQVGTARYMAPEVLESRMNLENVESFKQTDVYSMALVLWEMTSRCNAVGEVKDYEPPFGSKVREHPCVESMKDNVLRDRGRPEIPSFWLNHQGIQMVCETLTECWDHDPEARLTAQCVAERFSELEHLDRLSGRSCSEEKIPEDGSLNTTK
Briefly: Degradation of type II TGF-β receptor in HepG2 cells. It is filed as cell-based. The conditions noted are these: increasing doses for 1 hour, then 200 pM TGF-β for 48 hours. How it is done: The effects of 15-HEPE on TGF-β-induced signaling and cellular responses were determined. To test the effect of 15-HEPE on TGF-β-induced signaling, the activities of 15-HEPE to regulate TGF-β-stimulated Smad2 phosphorylation and nuclear translocation, both of which are key signaling events leading to TGF-β-induced cellular responses, were tested. One important biological activity of TGF-β is transcriptional activation of genes responsible for epithelial-mesenchymal transition (EMT), which is a crucial event in wound healing, tissue fibrosis, and cancer progression. The effect of 15-HEPE on TGFβ-induced epithelial mesenchymal transition related proteins (such as fibronectin, PAI-1, and N-cadherin etc.) expression in HepG2 and […] cells were assessed. HepG2 cells (human hepatoma cell line) were treated in increasing doses of 15-HEPE stage II in DMEM containing 0.1% of FBS for 1 hour and continually stimulated with or without 200 picomolar (pM) of TGF-β for 48 hours.
HepG2 cells (human hepatoma cell line) were treated in increasing doses of 15-HEPE stage II in DMEM containing 0.1% of FBS for 1 hour and continually stimulated with or without 200 picomolar (pM) of TGF-β for 48 hours. The two panels shown in FIG. 18A are two separate experiments run under the same experimental conditions.

Setting [1] is: 50 mg/kg PO QD Day 0-13, Day 14.
The mark [2] stands for this setting: 250 mg/kg PO QD Day 0-13, Day 14.
Where [3] appears, read: 500 mg/kg PO QD Day 0-13, Day 14.
[4] abbreviates: BDL mice, 50, 250 and 500 mg/kg.

The text below walks through data of US20200360331A1, “COMPOSITIONS COMPRISING 15-HEPE AND/OR 15-HETrE AND METHODS OF TREATING OR PREVENTING CARDIOMETABOLIC DISEASE, METABOLIC SYNDROME, AND/OR RELATED DISEASES” (Afimmune Limited, priority 2019, published 2020).

In the data set on TGF-β (relative mRNA normalized to 36B4, 50 mg/kg PO QD Day 0-13), `CC/C=C\CC(O)/C=C/C=C\C/C=C\C/C=C\CCCC(=O)O` (centres unmarked) [DS102, 15-hydroxy-eicosa-5Z,8Z,11Z,13E,17Z-pentaenoic acid] registered a TGF-β gene expression of 4.31 ± 0.69. Besides, in the data set on TGF-β (relative mRNA normalized to 36B4, 500 mg/kg PO QD Day 0-13), the TGF-β gene expression is given as 5.37 ± 0.76. Also, in the data set with NAFLD patients (1 g DS102 (n = 32)), the “Death, patients n” value was 0; the “Patients with ≥1 AE related to study drug, %” value was “(6.3) %”; the “Patients with ≥1 AE, %” value is recorded as “(59.4) %”. In the data set with NAFLD patients (2 g DS102 (n = 30)), the “Death, patients n” value turned out to be 0; the “Patients with ≥1 AE related to study drug, %” value was “(10.0) %”; the “Patients with ≥1 AE, %” value is recorded as “(50.0) %”; the “Patients with ≥1 SAE, %” value is reported as “(3.3) %”. In the data set with NAFLD patients (NAFLD patients, 16 weeks), the “drug related serious adverse events (SAEs)” value was “no drug related serious adverse events”; the “safety and tolerability compared to placebo” value was “safe and well tolerated”. Also, in the data set with BDL-operated mice (setting [1]), the “Serum ALT” value amounted to 402 ± 112 U/L and the “Serum Total Bilirubin” value is 26.8 ± 6.9 mg/dL. Further, in the data set on BDL-operated mice (setting [2]), the “Serum ALT” value was found to be 351 ± 155 U/L and the “Serum Total Bilirubin” value was determined as 23.5 ± 9.8 mg/dL. Further, in the data set with BDL-operated mice (setting [3]), the “Serum ALT” value is listed as 383 ± 147 U/L and the “Serum Total Bilirubin” value came out at 26.2 ± 6.1 mg/dL. In the data set with BDL-operated mice (setting [4]), the “serum ALT level vs Vehicle group” value is “no significant differences” and the “serum total bilirubin level vs Vehicle group” value is given as “no significant differences”. The “degradation of type II TGF-β receptor” value on type II TGF-β receptor is reported as “induced degradation of type II TGF-β receptor”.
